Measurements: patent US9731001B2, “Three-dimensional cavities of dendritic cell immunoreceptor (DCIR), compounds binding thereto and therapeutic applications related to inhibition of human immunodeficiency virus type-1 (HIV-1)” (priority 2011, dated 2017)

How the values were obtained:
HIV-1 (NL4-3) = test: HIV-1 binding/entry on H2O2-treated (apoptotic) CD4TL (p24); type: cell-based; details: CD4TL treated with 30 μM H2O2 16 h; NL4-3 1 h; FIG. 8 panel A
Description: FIGS. 8A and 8B are bar graphs showing the impact of DCIR inhibitors on HIV-1 transmission by apoptotic CD4^+ T cells. Target CD4^+ T cells (1×10^6) were treated for 16 h with H2O2 (30 μM) to induce the surface expression of DCIR. Cells were treated with site A inhibitors (1 and 4) or site B inhibitors (1 and 2) or vehicle (DMSO). Panel A: Cells were next exposed to NL4-3 (100 ng/ml of p24) for 1 h at 37° C., extensively washed to remove unadsorbed virions before assessing p24 content. Panel B: Cells were first incubated with NL4-3 (100 ng/ml of p24) for 2 h at 37° C., washed extensively to remove unadsorbed virions and cultured in complete RPMI-1640 supplemented with rhIL-2 for the time indicated. Cell-free supernatants were then collected and assayed for p24 content. Data shown correspond to the means±sem of 3 independent experiments performed in triplicate for panel A and the means±SEM of 2 independent experiments for panel B. The asterisks denotes statistically significant data (*, P<0.05; **, P<0.01; ***, P<0.001).
Apoptosis was induced in CD4TL activated with 30 μM H2O2 for 16 h before performing the following experimental procedures. To assay binding/entry, cells (1×10^6) were incubated for 60 min at 37° C. with NL4-3 (100 ng of p24). After three extensive washes with PBS to remove un-adsorbed virus, HIV-1 binding was quantified by estimating p24 content. […]

HIV-1 (NL4-3BalEnv) [1] = test: HIV replication in polarized Th17 CD4T cells (p24); type: cell-based; details: 10 μM, 3, 7 and 10 days of incubation
Description: (§1) FIGS. 13A and 13B are a bar graphs showing impact of the DCIR-EPS inhibitor (Cpd B2) on HIV replication by activated Th17 polarized CD4T cells, according to Example 8. Polarized CD4 Th17 cells (FIG. 13A) and PHA/IL-2 activated CD4T cells (FIG. 13B) were either untreated or treated with 10 μM of DCIR-EPS inhibitor (Cpd B2) for 10 min at 37° C. Cells were then exposed to NL4-3BalEnv for 2 hrs. After three washes with PBS to remove non-adsorbed virus, cells were cultured during 10 days. Viral replication was quantified by measuring the HIV-p24 content in culture supernatants. Data represent means±SD of triplicate samples from the same patient. Asterisks denote statistically significant differences (**, P<0.01), (*, P<0.05).
(§2) It was assessed whether the DCIR inhibitor (Compound B2) could reduce viral production. Polarized Th17 CD4T cells (FIG. 13A) and PHA/IL-2 activated CD4T cells (FIG. 13B) were pretreated or not with DCIR inhibitor (Cpd B2) before being put into contact with NL4-3BalEnv. Cells were washed and incubated for 10 days and then p24 content was measured. […] Prevention of Th17 infection could be contributed to maintain an adequate intestinal homeostasis.

HIV-1 (NL4-3BalEnv) [2] = test: HIV replication in PHA/IL-2 activated CD4T cells (p24); type: cell-based; details: 10 μM
Description: as §1, §2

Polarized CD4 Th17 cells = test: Toxicity by MTT assay, polarized CD4 Th17 cells; type: cell-based, human; details: Th17 CD4T cells; 10 uM; 10 days
Description: (§3) FIGS. 14A-14F are a bar graphs showing the impact of the DCIR-EPS inhibitor (Cpd B2) on viability and apoptosis of TH17 polarized CD4 T cells or PHA-L/activated CD4T cells according to Example 8. Polarized CD4 TH17 cells (left panels) or PHA-L/IL-2 activated CD4 T cells (right panels) were either untreated or treated with 10 μM of DCIR-EPS inhibitor for 10 min at 37° C. Cells were then contacted with NL4-3BalEnv for 2 hrs and washed three times with PBS to remove non-adsorbed virus. Cells were then incubated for 10 days and toxicity was measured using the MTT assay (upper panels). In parallel, cells were incubated for 24 hrs and stained with Z-Vad-FMK FITC Abs to measure apoptosis) (middle panels) or with DCIR Abs lower panels).
(§4) After observing the inhibition of p24 content in Th17 cells by the DCIR inhibitor (Cpd B2), the impact of the DCIR inhibitor on cell viability and apoptosis was determined (FIG. 14). Polarized CD4 Th17 cells (FIG. 14A, 14C, 14E) or PHA-L/IL-2 CD4T cells (FIGS. 14B, 14D, 14F) were either untreated (DMSO) or treated with 10 uM of DCIR inhibitor for 10 minutes at 37° C. and then incubated with NL4-3BalEnv or mock virus for 2 hours. […] DCIR expression on Th17 CD4 T cells and PHA-L/IL-2 activated CD4 T cells was measured with or without treatment with the DCIR inhibitor (FIGS. 14E, 14F). […]

[3] = test system: PHA-L/IL-2 activated CD4 T cells; test: Toxicity by MTT assay, PHA-L/IL-2 activated CD4 T cells; type: cell-based, human; details: 10 uM, 10 days
Description: as §3, §4

Th17 CD4 T cells = test: Apoptosis (Z-Vad-FMK FITC), Th17 CD4 T cells; type: cell-based, human; details: 10 uM, 24 hrs
Description: as §3, §4

PHA-L/IL-2 CD4 T cells = test: Apoptosis (Z-Vad-FMK FITC), PHA-L/IL-2 CD4 T cells; type: cell-based, human; details: 10 uM, 24 hrs
Description: as §3, §4

DCIR [4] = test: DCIR expression on Th17 CD4 T cells; type: cell-based, human; details: 10 uM
Description: as §3, §4

DCIR [5] = test: DCIR expression on PHA-L/IL-2 activated CD4 T cells; type: cell-based, human; details: 10 uM
Description: as §3, §4

SMILES	decrease of HIV-1 attachment to H2O2 treated cells (HIV-1 (NL4-3))	p24 content (HIV-1 (NL4-3BalEnv) [1])	p24 content (HIV-1 (NL4-3BalEnv) [2]; after 3 and 7 days)	p24 content (HIV-1 (NL4-3BalEnv) [2]; after 10 days)	toxic effect (MTT assay) (Polarized CD4 Th17 cells)	toxic effect (MTT assay) [3]	apoptosis (Th17 CD4 T cells)	apoptosis (PHA-L/IL-2 CD4 T cells)	DCIR expression (DCIR [4])	DCIR expression (DCIR [5])
O=C(/C=C/C=C/c1ccccc1)c1ccccc1 [Compound A1, 1,5-diphenyl-2,4-pentadien-1-one]	about 50%	–	–	–	–	–	–	–	–	–
O=C(c1ccccc1)c1cc2ccccc2o1 [Compound B1, 1-benzofuran-2-yl(phenyl)methanone]	~40%	–	–	–	–	–	–	–	–	–
Cc1ccc(/N=[N+](\[O-])c2ccc(C)cc2)cc1 [Compound B2, 1-methyl-4-[(4-methylphenyl)-NNO-azoxy]benzene]	–	significantly reduced p24 content	non-significant trend for reduction	significant reduction	did not have a toxic effect	did not have a toxic effect	did not have any impact on apoptosis	underwent less apoptosis	no difference in DCIR expression	marked reduction in DCIR expression
